The values that follow come from PubChem BioAssay (NCI).

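1) Cells in 96-well plates. 2) Compound, 48 h, 5 concentrations. 3) Linear interpolation between surrounding doses. 4) Unreached endpoint = highest concentration. GI50: concentration for 50% inhibition of growth. TGI denotes the concentration required for complete inhibition of growth.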

Holding throughout (test): inhibition of tumour cell growth, NCI panel, 48 h
The subject of experiment [1] is DLD-1 colon.
The test system of experiment [2] is HCC-2998 colon.
In experiment [3] the test system is OVCAR-5 ovarian.
Experiment [4] deals with HCT-15 colon.
In experiment [5] the test system is UACC-257 melanoma.
The subject of experiment [6] is SF-268 CNS.
The subject of experiment [7] is KM20L2 colon.
The test system of experiment [8] is RXF 393 renal.
For experiment [9], the system named is M14 melanoma.
Experiment [10] deals with SNB-19 CNS.

As for `CCN(CC)CCOc1ccc(C(=C2CCCCC2)c2ccc(OCCN(CC)CC)cc2)cc1`, the TGI in experiment [1] is 4.52 µM; in experiment [2], 2.62 µM; in [3], 3.37 µM; in experiment [4] it was 2.91 µM; in experiment [5] it was 3.32 µM; in experiment [6] it was 3.23 µM. The TGI came to 2.55 µM in experiment [7], 3.14 µM in experiment [8], 2.91 µM in [9] and 4.03 µM in [10].

For `COc1ccc(C(=O)O)c(Cc2ccc3ccccc3c2)c1`, the TGI in experiment [1], in [3], in [5], in [6], in [7] and in experiment [8] was over 100 µM in each case. Besides, the TGI in experiment [9] and in [10] was over 100 µM each time.

As for `COC(=O)NN1C(C)=C(C(=O)OC)C2(CCOC2=O)C1(C)O` (stereo unspecified), the TGI in experiment [1], in [2], in experiment [3], in experiment [4], in [5] and in experiment [6] was over 100 µM in each case. The TGI in [7], in experiment [9] and in [10] was over 100 µM each time.

On to `CC1=C(c2cc(C(=O)Nc3nccs3)nc(NC#N)n2)Sc2ccccc2N1`, for which the TGI in [1], in experiment [3], in experiment [4], in [5], in experiment [6] and in experiment [7] was over 100 µM in each case. Besides, the TGI in experiment [9] and in experiment [10] was over 100 µM throughout.

`c1ccc(C2N3CCCCC3[C@@H]3c4[nH]c5ccccc5c4CCN23)cc1` (stereo partly specified): the TGI in experiment [1], in experiment [2], in experiment [3], in experiment [4], in experiment [5] and in experiment [6] was over 100 µM each time. Besides, the TGI in experiment [7], in experiment [8], in experiment [9] and in [10] was over 100 µM each time.

As for `CC1(C)OC(=O)C(=C2CC(c3ccccc3)c3ccccc32)C(=O)O1` (stereo unspecified), the TGI in experiment [1], in [2], in [3], in experiment [4], in experiment [5] and in experiment [6] was over 100 µM in each case. The TGI in [7], in experiment [8], in experiment [9] and in experiment [10] was over 100 µM in each case.

As for `CN(C)/C(N)=N/C(N)=S`, the TGI in experiment [1], in experiment [2], in experiment [3], in experiment [4], in experiment [5] and in [6] was over 100 µM throughout. Further, the TGI in experiment [7], in [8], in experiment [9] and in experiment [10] was over 100 µM in each case.

Regarding `COc1ccc(/C(C)=N/NC(N)=S)c(OC)c1`, the TGI in experiment [1], in experiment [2], in experiment [3], in [4], in [5] and in experiment [6] was over 100 µM each time. Besides, the TGI in experiment [7], in experiment [8], in experiment [9] and in experiment [10] was over 100 µM in each case.

Consider `CCC/C(=N\NC(=O)c1cc2ccccc2cc1O)C(CC)C(=O)CCC(=O)N(Cc1ccccc1)Cc1ccccc1` (stereo unspecified), for which the TGI in [1], in experiment [2], in experiment [3], in experiment [4], in experiment [5] and in [6] was over 100 µM in each case. In addition, the TGI in [7], in experiment [8], in [9] and in experiment [10] was over 100 µM in each case.

For the compound `BrC12c3ccccc3Sc3ccccc3C1(Br)c1ccccc12` (stereo unspecified), the TGI in experiment [1] is over 100 µM; in experiment [2], over 100 µM; in experiment [3], 86.2 µM; in experiment [4], 46.3 µM; in experiment [5], 86.3 µM; in [6] it was over 100 µM. Also, the TGI is 41.6 µM in [7], over 100 µM in experiment [8], 28.8 µM in experiment [9] and over 100 µM in experiment [10].

For the compound `COc1ccc(C#CCC(OC2OC(CO)C(O)C(O)C2O)C(O)c2ccc(OC)c(OC)c2)cc1OC` (stereo unspecified), the TGI in experiment [1], in experiment [2], in experiment [3], in [4], in experiment [5] and in [6] was over 100 µM throughout. The TGI in experiment [7], in experiment [8], in [9] and in experiment [10] was over 100 µM each time.

On to `CC(=O)OCC1OC(Sc2ccccn2)C=CC1OC(C)=O` (stereo unspecified), for which the TGI in experiment [1], in experiment [2], in [3], in experiment [5], in experiment [6] and in experiment [7] was over 100 µM throughout. The TGI in [8], in [9] and in [10] was over 100 µM each time.

As to `CC(C)CC(=O)NS(=O)(=O)c1ccccc1`, the TGI in experiment [1], in experiment [2], in experiment [3], in [4], in experiment [5] and in experiment [6] was over 100 µM each time. For the same compound, the TGI in experiment [7], in [8], in [9] and in experiment [10] was over 100 µM in each case.

For the compound `O=c1/c(=C/c2ccc3c(c2)OCO3)sc2nnc(-c3ccco3)n12`, the TGI in experiment [1], in experiment [2], in [3], in experiment [5], in experiment [6] and in experiment [7] was over 100 µM each time. Moreover, the TGI in experiment [8], in [9] and in [10] was over 100 µM each time.

Turning to `CN(C)/C=N/c1nc2ncn(CCOC(=O)c3ccccc3)c2c(=O)[nH]1`, the TGI in experiment [1], in experiment [3], in [4], in [5], in experiment [6] and in experiment [7] was over 100 µM each time. In addition, the TGI in experiment [8] and in [9] was over 100 µM throughout.

On to `O=C(c1ccc2c3c(ccc(C(=O)C(F)(F)F)c13)CC2)C(F)(F)F`, for which the TGI in [1], in experiment [2], in experiment [3], in experiment [4], in experiment [5] and in experiment [6] was over 100 µM each time. For the same compound, the TGI in [7], in experiment [8], in experiment [9] and in experiment [10] was over 100 µM throughout.

Consider `Oc1cc2c(cc1O)-c1[nH]ncc1CC2`, for which the TGI in experiment [1] is over 100 µM; in experiment [2], 50.7 µM; in experiment [3], over 100 µM; in experiment [4] it was over 100 µM; in [5], over 100 µM; in experiment [6], over 100 µM. Also, the TGI in [7], in [9] and in experiment [10] was over 100 µM in each case.

Take `CCC(/C(=N\Nc1c(Cl)cc(Cl)cc1Cl)c1ccccc1)n1ccnc1C` (stereo unspecified): the TGI turned out to be 17.2 µM in experiment [1]; 15.7 µM in experiment [2]; 21.2 µM in experiment [3]; 24.4 µM in experiment [4]; 28.3 µM in experiment [5]; 47.2 µM in [6]. Also, the TGI in [7] came out at 17.5 µM; in [9], 28.6 µM; in [10] it was 28.5 µM.

`O=C(O)C1OC(Oc2cc(O)c3c(=O)cc(-c4ccc(O)cc4)oc3c2)C(O)C(O)C1O` (stereo unspecified): the TGI in experiment [1], in [2], in experiment [3], in experiment [5], in experiment [6] and in experiment [7] was over 100 µM each time. The TGI in experiment [9] and in [10] was over 100 µM each time.

As for `CC1=C(C(=O)Nc2ccccc2C)C(c2ccc(C3C(C(=O)Nc4ccccc4C)=CNC=C3C(=O)Nc3ccccc3C)cc2)C(C(=O)Nc2ccccc2C)=C(C)N1`, the TGI in experiment [1] came to 37.4 µM; in experiment [2], 31.8 µM; in experiment [3], 44.4 µM; in [4] it was 41 µM; in experiment [5], 33.2 µM; in [6], 17.4 µM. Also, the TGI in experiment [7] amounted to 28.6 µM; in experiment [8], 85.1 µM; in experiment [9], 33 µM; in [10] it was 49.1 µM.

In the case of `COc1cc(-c2cc(CCC(=O)Nc3ccccc3[N+](=O)[O-])n(-c3ccc([N+](=O)[O-])cc3[N+](=O)[O-])n2)ccc1O`, the GI50 in experiment [1] was over 100 µM; in [2] it was over 100 µM; in [3] it was over 100 µM; in [4], over 10 µM; in experiment [6], over 100 µM; in experiment [7] it was over 100 µM. Further, the GI50 in experiment [8], in experiment [9] and in experiment [10] was over 100 µM in each case. For the same compound, the TGI was over 100 µM in experiment [1]; over 100 µM in experiment [2]; over 100 µM in [3]; over 100 µM in experiment [4]; over 10 µM in experiment [5]; over 100 µM in [6]. The TGI in experiment [7], in experiment [8], in experiment [9] and in experiment [10] was over 100 µM throughout.
